Results: ChEMBL document CHEMBL6120990, “A Putative Frizzled 7-Targeting Compound Acts as a Firefly Luciferase Inhibitor” (J Med Chem, 2024)
Active and inactive are the calls of the source. No cut-off for these calls is given here.

Columns and labels:
HEK293 [1] = assay: Inhibition of Wnt/beta-catenin signalling in deltaFZD1-10 HEK293 cells transfected with HiBit-FZD7 assessed as reduction in Wnt3a induced topflash signal at 10 uM pre-stimulated with Wnt3a followed by compound addition and measured after 24 hrs by dual luciferase reporter assay; format: cell-based; conditions: Homo sapiens
HEK293 [2] = assay: Inhibition of Wnt/beta-catenin signalling in deltaFZD1-10 HEK293 cells transfected with HiBit-FZD7 assessed as reduction in topflash signal at 10 uM incubated for 24 hrs by dual luciferase reporter assay; format: cell-based; conditions: Homo sapiens
HEK293 [3] = assay: Inhibition of firefly luciferase expression in deltaFZD1-10 HEK293 cells assessed as reduction in bioluminescence incubated for 24 hrs by microplate reader analysis; format: functional, cell-based; conditions: Homo sapiens, dose 0.1-1000 nM
[4] = Inhibition of firefly luciferase expression in deltaFZD1-10 HEK293 cells incubated for 24 hrs by microplate reader analysis; format: functional, cell-based; conditions: Homo sapiens, HEK293, 24 h
HEK293 [5] = assay: Effect on renilla luciferase level deltaFZD1-10 HEK293 cells assessed as reduction in Rluc-bioluminescence at 0.1 to 1000 nM incubated for 24 hrs by luminescence based analysis; format: functional, cell-based; conditions: Homo sapiens, dose 0.1-1000 nM
[6] = Inhibition of Wnt/beta-catenin signalling in deltaFZD1-10 HEK293 cells transfected with HiBit-FZD7 assessed as inhibition of CHIR99021-induced TOPFlash ratio incubated for 24 hrs by dual luciferase reporter assay; format: cell-based; conditions: Homo sapiens, HEK293, 24 h
HEK293 [7] = assay: Inhibition of Wnt/beta-catenin signalling in deltaFZD1-10 HEK293 cells transfected with FZD7-DEP-Clamp assessed as effect on WNT-3A induced FZD7-DEP-Clamp signal using furimazine as substrate at 10 uM preincubated for 10 mins followed by WNT-3A stimulation and measured every 2 mins for 1 hr by luminescence based analysis; format: cell-based; conditions: Homo sapiens, time 70.0 min
HEK293 [8] = assay: Effect on Nano-luciferase activity in deltaFZD1-10 HEK293 cells at 0.1 to 1000 nM incubated for 24 hrs under TK promoter by luminescence based analysis; format: functional, cell-based; conditions: Homo sapiens, dose 0.1-1000 nM
MEF = assay: Effect on WNT-3A induced Axin2 mRNA expression in mouse MEF cells at 10 uM stimulated with WNT-3A prior to compound addition and measured after 24 hrs by qPCR analysis; format: functional, cell-based

IC50 [4]: 23.7 nM | IC50 ([6]; read-out: IC50): 33 nM | IC50 ([6]; read-out: pIC50 (converted)): 33.9 nM
Structure (SMILES): Cc1ccc(C(=O)Nc2ccc(SCC(=O)Nc3nc(-c4ccccc4)cs3)cc2)c(C)c1
inhibition (HEK293 [1]): Active | inhibition (HEK293 [2]): Active | inhibition (HEK293 [3]): Dose-dependent-effect | Activity (HEK293 [5]): inactive | inhibition (HEK293 [7]): inactive | Activity (HEK293 [8]): inactive | Activity (MEF): inactive
